The source of these data is publication PMC11272598, “RG7774 (Vicasinabin), an orally bioavailable cannabinoid receptor 2 (CB2R) agonist, decreases retinal vascular permeability, leukocyte adhesion, and ocular inflammation in animal models” (Frontiers in Pharmacology, 2024).

Each structure is given as a SMILES string.

The target in one data set is T1, Human 12-LOX (Homo sapiens, UniProt P18054).
T1 construct: human platelet-derived 12-LOX; from tissue; host or cells: human platelets
Nature of the data set: Human 12-LOX assay. In kind it is biochemical. Conditions: RG7774 10 µM; read-out: Mean ± SEM % inhibition of control, Human 12-LOX. The method, then: The inhibitory effects of different concentrations of RG7774 (0.1-500 µM) on the activities of human recombinant 5-LOX (Cayman Chemical Company #60402), 15-LOX (Cayman Chemical Company #10011263), and human platelet-derived 12-LOX were determined using the Biovision Lipoxygenase Activity Assay Kit (#BVN-K978-100). This kit converts the LOX substrate to an intermediate that reacted with the probe, generating a fluorescent product. The effect of RG7774 (preincubated for 15 min) at 10 µM on LOXs (5-LOX: 0.5 or 1.2 µg; 12-LOX: 20 µg; 15-LOX: 0.23 or 0.3 µg) was ascertained by adding the compounds directly to the incubation medium and the fluorescent signal, recorded at excitation/emission 500/536 nm at 30 sec intervals for 30-40 min, was directly proportional to LOX activity. […] The percentage of human 5-, 12-, and 15-LOX activity (control) was estimated from the amount of oxidized probe in the reaction using a standard curve.

The next data set concerns the target T2, Human MAGL (Homo sapiens, UniProt Q99685).
T2 construct: Mouse brain or human U937 cell extracts (ATCC, Manassas, VI, USA); host or cells: U937 cells, 100,000 g supernatant
The experiment in a line: Human MAGL assay (U937 cell extracts). The following applies: RG7774 10 µM; read-out: Mean ± SEM % inhibition of control, Human MAGL. In kind it is biochemical. The method, then:
The final supernatant was incubated with [^3H]-2-OG (10 µM) (ARC, MO, USA) at 37°C for 30 min as previously described, and reactions were stopped with a 2:1 (v/v) mixture of chloroform/methanol. [^3H]-glycerol release in the aqueous phase was measured by scintillation counting. […] Human supernatant (100 µg) was preincubated for 15 min at RT with 8 different concentrations of RG7774 (0.1-500 µM) in the incubation medium.

A further data set has as its target Mouse CB1R (Mus musculus, UniProt P47746). Nature of the data set: Mouse cAMP assay in N18TG2 cells. Format: cell-based. The following applies: RG7774 10 µM, N18TG2 cells; read-out: Mean ± SEM % inhibition of control, Mouse CB1R (cAMP assay). As to the method: The effect of RG7774 on the forskolin-stimulated accumulation of cAMP was determined using the LANCE ULTRAcAMP kit (PerkinElmer Life Sciences, MA, USA), according to the manufacturer’s instructions. Briefly, N18TG2 cells preincubated for 30 min with 1-methyl-3-isobutylxanthine (1 mM) were added to 0.5 µM forskolin preincubated with or without RG7774 for 15 min. Reactions were incubated for 30 min at 37°C and Time-resolved fluorescence was measured using a Victor V Multilabel counter (PerkinElmer Life Sciences). Data were transformed into cAMP concentrations using a standard curve.

The target in another data set is T3, human CB2R (Homo sapiens, UniProt P34972).
T3 construct: bgal (beta-galactosidase fragment of the PathHunter system); host or cells: CHO-K1
T3 sequence (P34972 whole entry, the tested form may be a part): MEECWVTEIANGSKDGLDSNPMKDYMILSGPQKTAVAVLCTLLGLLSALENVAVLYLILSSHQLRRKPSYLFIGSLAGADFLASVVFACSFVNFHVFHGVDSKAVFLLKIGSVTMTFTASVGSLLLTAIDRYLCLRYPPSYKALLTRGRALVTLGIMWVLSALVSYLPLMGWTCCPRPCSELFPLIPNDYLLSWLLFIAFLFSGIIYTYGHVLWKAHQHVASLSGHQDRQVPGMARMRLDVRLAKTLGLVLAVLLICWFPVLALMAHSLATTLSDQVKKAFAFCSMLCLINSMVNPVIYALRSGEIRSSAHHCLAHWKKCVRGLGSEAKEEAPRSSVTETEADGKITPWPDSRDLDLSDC
Nature of the data set: Competition binding, [^3H]-CP55940, CHO cell membranes. The following applies: competition binding assays. As to the method: Competition and saturation binding assays were performed using the radiolabeled CB1R/CB2R agonist [^3H]-CP55940 (PerkinElmer, Waltham, MA, United States) in recombinant cell systems, and the newly developed CB2R-selective agonist [^3H]-RO6753361 ([Chicca et al., 2024]) in cells expressing endogenous CB1R/CB2R. Competition assays were conducted by incubating 5, 40, or 40 µg of membrane protein from CHO cells, Jurkat cells or spleen cells, respectively, with 1.5 nM [^3H]-CP55940 or 1.5 nM [^3H]-RO6753361 in the presence or absence of increasing concentrations of ligand (RG7774 or control) for 2 h at 30°C in a final volume of 0.2 mL of assay buffer (50 mmol/L Tris-HCl, 5 mmol/L MgCl2, 2.5 mmol/L EDTA, and 0.5% fatty acid-free BSA [pH 7.4] and 1% DMSO), with gentle shaking. Saturation binding assays were conducted by incubating 1–3 μg, 40 μg, or 30–40 μg of membrane protein from CHO cells, Jurkat cells, or spleen tissue, respectively, with 12 concentrations in the range of 80–0.039 nM [^3H]-CP55940 or [^3H]-RO6753361 for 2 h at 30°C in a final volume of 0.2 mL/well of assay buffer without DMSO. […] IC50 values and Hill slopes were determined with a 4-parameter logistic model using ActivityBase (ID Business Solution, Guilford, United Kingdom) and pKi values were determined using the Cheng-Prusoff equation ([Cheng and Prusoff, 1973]).

A further data set can be described thus: logD 7.4. Format: physicochemical. The following applies: octanol/water, pH 7.4. The text has this: TABLE 2 Physicochemical and ADMET profile for RG7774.
Data set [1] is described as follows: Cerebrospinal fluid versus plasma concentration (data on file). Conditions: cynomolgus monkeys. Format: in vivo.
For a further data set, the target named is T4, endogenous CB2R (Homo sapiens, UniProt P34972).
T4 construct: endogenous CB2R in human Jurkat cells; endogenous in cells; host or cells: Jurkat cells
T4 sequence (P34972 whole entry): as the sequence (P34972 whole entry, the tested form may be a part) above
The experiment in a line: pERK assay in Jurkat cells. In kind it is cell-based. As to the method: ERK phosphorylation in response to RG7774 treatment was measured in Jurkat cells as described in ([Saroz et al., 2019]) using the AlphaLISA SureFire Ultra p-Erk1/2 assay (PerkinElmer, Waltham, MA, United States). Cells (200,000 per 96 well plate) were seeded in 40 μL RPMI 1640 assay medium (Fisher Scientific, Schwerte, Germany) containing 10% FCS, 2 mM L-Glu, and 25 mM HEPES) and incubated for 1 h at 37°C in 5% CO2. Cells were treated with increasing concentrations of RG7774 in 40 μL assay medium. Plates were shaken for 30 s (sec) at 450 rpm, incubated for 2 min at 37°C in 5% CO2, and placed on ice. Ice-cold lysis buffer (20 μL 5x) (supplied with the assay kit) was added, plates were shaken (500 rpm) for 10 min at 4°C, and 10 μL of lysate was transferred to a 384-well Optiplate (PerkinElmer, Waltham, MA, United States). The AlphaLISA assay was performed according to the manufacturer’s protocol. Plates were read using Tecan Infinite M1000Pro (excitation 680 nm for 100 ms, integration time 300 ms, and emission 615 nm).

Sequence of Mouse CB1R (P47746 whole entry): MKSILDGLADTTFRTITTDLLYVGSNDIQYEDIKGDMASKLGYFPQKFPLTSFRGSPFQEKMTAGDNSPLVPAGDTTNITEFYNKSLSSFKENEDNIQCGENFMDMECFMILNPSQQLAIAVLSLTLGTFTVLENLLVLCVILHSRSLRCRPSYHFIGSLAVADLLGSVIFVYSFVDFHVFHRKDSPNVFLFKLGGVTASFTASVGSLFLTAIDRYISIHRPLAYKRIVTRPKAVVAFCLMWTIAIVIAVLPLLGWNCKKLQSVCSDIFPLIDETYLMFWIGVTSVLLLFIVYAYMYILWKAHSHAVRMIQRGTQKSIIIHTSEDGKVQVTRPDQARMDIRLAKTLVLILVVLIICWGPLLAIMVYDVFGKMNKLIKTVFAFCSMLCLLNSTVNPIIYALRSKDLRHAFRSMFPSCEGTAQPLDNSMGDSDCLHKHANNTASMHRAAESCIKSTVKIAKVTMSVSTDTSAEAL
T1 sequence (P18054 whole entry): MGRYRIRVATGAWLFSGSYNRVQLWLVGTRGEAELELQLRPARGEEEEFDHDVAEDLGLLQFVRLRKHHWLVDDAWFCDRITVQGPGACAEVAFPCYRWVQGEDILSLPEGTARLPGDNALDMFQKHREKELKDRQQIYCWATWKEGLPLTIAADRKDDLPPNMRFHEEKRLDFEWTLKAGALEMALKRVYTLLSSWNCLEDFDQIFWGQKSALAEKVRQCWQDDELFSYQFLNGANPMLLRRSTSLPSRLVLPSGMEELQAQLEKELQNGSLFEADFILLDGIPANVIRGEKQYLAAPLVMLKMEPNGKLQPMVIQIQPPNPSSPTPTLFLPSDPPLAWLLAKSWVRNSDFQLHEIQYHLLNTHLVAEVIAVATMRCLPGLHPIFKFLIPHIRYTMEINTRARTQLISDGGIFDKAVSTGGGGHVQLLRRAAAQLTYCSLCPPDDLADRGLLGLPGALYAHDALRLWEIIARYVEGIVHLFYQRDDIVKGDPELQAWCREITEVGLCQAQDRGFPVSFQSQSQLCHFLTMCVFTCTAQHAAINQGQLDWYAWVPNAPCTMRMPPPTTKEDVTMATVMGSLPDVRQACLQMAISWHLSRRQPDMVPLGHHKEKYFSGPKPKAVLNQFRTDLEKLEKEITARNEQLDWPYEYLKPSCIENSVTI
T2 sequence (Q99685 whole entry): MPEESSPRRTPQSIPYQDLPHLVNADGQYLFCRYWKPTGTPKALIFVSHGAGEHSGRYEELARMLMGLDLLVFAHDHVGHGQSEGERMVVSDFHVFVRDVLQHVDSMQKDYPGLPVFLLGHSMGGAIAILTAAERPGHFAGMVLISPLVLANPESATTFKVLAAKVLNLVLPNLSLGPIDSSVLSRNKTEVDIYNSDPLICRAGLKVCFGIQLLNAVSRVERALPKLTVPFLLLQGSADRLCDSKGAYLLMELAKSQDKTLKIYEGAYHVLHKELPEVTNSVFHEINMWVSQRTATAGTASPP

For `Cn1nnnc1Cn1nnc2c(N3CC[C@H](O)C3)nc(C(C)(C)C)nc21` [RG7774, (S)-1-(5-tert-butyl-3-[(1-methyl-1H-tetrazol-5-yl)methyl]-3H-[1,2,3]triazolo[4,5-d]pyrimidin-7-yl)pyrrolidin-3-ol], the inhibition at 10 µM was 1.5 ± 1.8% at Human 12-LOX, -9.7% on Human MAGL and 16.6% on Mouse CB1R. In addition, at human CB2R, the “binding selectivity for recombinant human CB2R over CB1R” value is above 195 fold. Besides, the logD in “logD 7.4” was 2.2. Also, the “concentrations lower in cerebrospinal fluid than in plasma” value in data set [1] is reported as “approximately 10 fold”. The compound further yielded an EC50 at endogenous CB2R of 38.5 ± 15 nM.
